Source: patent publication US5061794A, “Cephalosporin derivatives, and antibacterial agents” (priority 1986, dated 1991)
Structures can show the parent of a compound that is named as a salt. Where two headings read alike, the source gives them in different places.

Columns and labels:
S. marcescens No. 16-2 = experiment: in vitro antibacterial activity, agar plate dilution method (MIC); type: cell-based; details: Serratia marcescens, NO.162, 16 h
Procedure, shortened: (§1)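 Plate dilution on Mueller Hinton agar with various antibiotic concentrations. Inoculum size was 10^6 CFU/ml, incubation 16 hours at 37° C.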

K. oxytoca GN10650 = experiment: as above; type: cell-based; details: Klebsiella oxytoca, GN10650, 16 h, read-out: Minimum Inhibitory Concentration (MIC), *K. oxytoca GN10650, lactamase-producing strain; 10^6 CFU/ml
Procedure, shortened: as §1

P. vulgaris No. 33 = experiment: as above; type: cell-based; details: Proteus vulgaris, NO.33, 16 h, read-out: Minimum Inhibitory Concentration (MIC), *P. vulgaris No. 33, lactamase-producing strain; 10^6 CFU/ml
Procedure, shortened: as §1

K. pneumoniae PCI-602 = experiment: as above; type: cell-based; details: Klebsiella pneumoniae, PCI602, 16 h, read-out: Minimum Inhibitory Concentration (MIC), K. pneumoniae PCI-602; 10^6 CFU/ml
Procedure, shortened: as §1

E. coli NIHJ JC2 = experiment: as above; type: cell-based; details: Escherichia coli, NIHJJC2, 16 h, read-out: Minimum Inhibitory Concentration (MIC), E. coli NIHJ JC2, 10^6 CFU/ml, 37° C.
Procedure, shortened: as §1

E. cloacae Nek 39 = experiment: as above; type: cell-based; details: Enterobacter cloacae, NEK39, 16 h, 10^6 CFU/ml
Procedure, shortened: as §1

M. morganii GN5407 = experiment: as above; type: cell-based; details: Morganella morganii, GN5407, 16 h, read-out: Minimum Inhibitory Concentration (MIC), *M. morganii GN5407, lactamase-producing strain; 10^6 CFU/ml
Procedure, shortened: as §1

S. aureus 209P NIHJ-JC1 = experiment: as above; type: cell-based; details: Staphylococcus aureus, 16 h
Procedure, shortened: as §1

E. cloacae 963 = experiment: as above; type: cell-based; details: 10^6 CFU/ml
Procedure, shortened: as §1

K. pneumoniae No. 42 = experiment: as above; type: cell-based; details: Klebsiella pneumoniae, NO.42, 16 h, read-out: Minimum Inhibitory Concentration (MIC), *K. pneumoniae No. 42, lactamase-producing strain; 10^6 CFU/ml
Procedure, shortened: as §1

E. coli GN5482 = experiment: as above; type: cell-based; details: Escherichia coli, GN5482, 16 h
Procedure, shortened: as §1

P. vulgaris HX-19 = experiment: as above; type: cell-based; details: Proteus vulgaris, HX19, 16 h, read-out: Minimum Inhibitory Concentration (MIC)
Procedure, shortened: as §1

S. marcescens IAM 1184 = experiment: as above; type: cell-based; details: Serratia marcescens, IAM1184, 16 h, read-out: Minimum Inhibitory Concentration (MIC)
Procedure, shortened: as §1

Ps. cepacia 23 = experiment: as above; type: cell-based, Pseudomonas cepacia; details: read-out: Minimum Inhibitory Concentration (MIC)
Procedure, shortened: as §1

E. coli CSH2 (RK1) = experiment: microbe, parasite or virus in culture; type: cell-based; details: Escherichia coli, 16 h, read-out: Minimum Inhibitory Concentration (MIC), *E. coli CSH2 (RK1), lactamase-producing strain; 10^6 CFU/ml
Procedure, shortened: as §1

E. coli CSH(RE45) = experiment: microbe, parasite or virus in culture; type: cell-based; details: Escherichia coli, 16 h, read-out: Minimum Inhibitory Concentration (MIC), *E. coli CSH(RE45), lactamase-producing strain; 10^6 CFU/ml
Procedure, shortened: as §1

A. calcoaceticus No. 4 = experiment: in vitro antibacterial activity, agar plate dilution method (MIC); type: cell-based, Acinetobacter calcoaceticus; details: Acinetobacter calcoaceticus, NO.4, 16 h, 10^6 CFU/ml
Procedure, shortened: as §1

Ps. aeruginosa IF03445 = experiment: as above; type: cell-based, Pseudomonas aeruginosa; details: Pseudomonas aeruginosa, 10^6 CFU/ml
Procedure, shortened: as §1

Ps. aeruginosa AK 109 = experiment: as above; type: cell-based, Pseudomonas aeruginosa; details: Pseudomonas aeruginosa, AK109, 16 h
Procedure, shortened: as §1

Ps. aeruginosa AKR17 = experiment: as above; type: cell-based, Pseudomonas aeruginosa; details: Pseudomonas aeruginosa, read-out: Minimum Inhibitory Concentration (MIC)
Procedure, shortened: as §1

[1] = Enterobacter cloacae, 963, 16 h, read-out: Minimum Inhibitory Concentration (MIC), E. cloacae 963
[2] = read-out: Minimum Inhibitory Concentration (MIC), *E. coli GN5482, lactamase-producing strain, 10^6 CFU/ml
[3] = A. calcoaceticus No. 4, read-out: Minimum Inhibitory Concentration (MIC)
[4] = Ps. aeruginosa AK 109, 10^6 CFU/ml, read-out: Minimum Inhibitory Concentration (MIC)
[5] = 16 h, Ps. aeruginosa AKR17, 10^6 CFU/ml
[6] = read-out: Minimum Inhibitory Concentration (MIC), *S. marcescens No. 16-2, lactamase-producing strain, 10^6 CFU/ml
[7] = read-out: Minimum Inhibitory Concentration (MIC), *E. cloacae Nek 39, lactamase-producing strain
[8] = read-out: Minimum Inhibitory Concentration (MIC)
[9] = Enterobacter cloacae, 16 h, E. cloacae 963, read-out: Minimum Inhibitory Concentration (MIC)
[10] = IF03445, 16 h, read-out: Minimum Inhibitory Concentration (MIC), Ps. aeruginosa IF03445
[11] = read-out: Minimum Inhibitory Concentration (MIC), S. aureus 209P NIHJ-JC1, 10^6 CFU/ml, 37° C., 16 hours
[12] = read-out: Minimum Inhibitory Concentration (MIC), A. calcoaceticus No. 4
[13] = read-out: Minimum Inhibitory Concentration (MIC), Ps. aeruginosa AK 109, 10^6 CFU/ml
[14] = S. marcescens IAM 1184, 10^6 CFU/ml
[15] = Burkholderia cepacia, 16 h, Ps. cepacia 23, 10^6 CFU/ml

| SMILES | MIC (K. oxytoca GN10650) [µg/mL] | MIC (P. vulgaris No. 33) [µg/mL] | MIC (K. pneumoniae PCI-602) [µg/mL] | MIC (E. coli NIHJ JC2) [µg/mL] | MIC (M. morganii GN5407) [µg/mL] | MIC (E. cloacae 963; [1]) [µg/mL] | MIC (K. pneumoniae No. 42) [µg/mL] | MIC (E. coli GN5482; [2]) [µg/mL] | MIC (P. vulgaris HX-19; P. vulgaris HX-19, 10^6 CFU/ml) [µg/mL] | MIC (S. marcescens IAM 1184) [µg/mL] | MIC (Ps. cepacia 23; Burkholderia cepacia, 23, 16 h) [µg/mL] | MIC (E. coli CSH2 (RK1)) [µg/mL] | MIC (E. coli CSH(RE45)) [µg/mL] | MIC (Ps. aeruginosa AK 109; [4]) [µg/mL] | MIC (Ps. aeruginosa AKR17; [5]) [µg/mL] | MIC (S. marcescens No. 16-2; [6]) [µg/mL] | MIC (E. cloacae Nek 39; [7]) [µg/mL] | MIC (S. aureus 209P NIHJ-JC1; [8]) [µg/mL] | MIC (Ps. aeruginosa IF03445; [10]) [µg/mL] | MIC (A. calcoaceticus No. 4; [12]) [µg/mL] | further results |
| --- | --- | --- | --- | --- | --- | --- | --- | --- | --- | --- | --- | --- | --- | --- | --- | --- | --- | --- | --- | --- | --- |
| CC(C)(O/N=C(\C(=O)N[C@@H]1C(=O)N2C(C(=O)O)=C(CSc3nc(-c4ccccc4)c(CC(=O)O)s3)CS[C@H]12)c1csc(N)n1)C(=O)O [compound 16, trisodium 7β-[2-(2-aminothiazol-4-yl)-2-(1-carboxylate-1-methylethoxyimino)acetamido]-3-(5-carboxylatemethyl-4-phenylthiazol-2-yl)thio-methyl-3-cephem-4-carboxylate, reference compound] | 3.12 | 0.2 | 1.56 | 6.25 | 1.56 | 6.25 | 3.12 | 6.25 | < 0.006 | 1.56 | 6.25 | 6.25 | 3.12 | 50 | > 100 |  |  |  |  |  | MIC (S. marcescens No. 16-2; *S. marcescens No. 16-2, lactamase-producing strain, 10^6 CFU/ml, read-out: Minimum Inhibitory Concentration (MIC)): 50 µg/mL; MIC (E. cloacae Nek 39; *E. cloacae Nek 39, lactamase-producing strain, read-out: Minimum Inhibitory Concentration (MIC)): 25 µg/mL; MIC (S. aureus 209P NIHJ-JC1; S. aureus 209P NIHJ-JC1, 10^6 CFU/ml, 37° C., 16 hours, read-out: Minimum Inhibitory Concentration (MIC)): 50 µg/mL; MIC (A. calcoaceticus No. 4; [3]): > 100 µg/mL; MIC (Ps. aeruginosa IF03445; 16 h, Ps. aeruginosa IF03445, read-out: Minimum Inhibitory Concentration (MIC)): 50 µg/mL |
| CC(C)(O/N=C(\C(=O)N[C@@H]1C(=O)N2C(C(=O)O)=C(CSc3nc(-c4ccccc4)cs3)CS[C@H]12)c1csc(N)n1)C(=O)O [compound 11, disodium 7β-[2-(2-aminothiazol-4-yl)-2-(1-carboxylate-1-methylethoxyimino)acetamido]-3-(4-phenylthiazol-2-yl) thiomethyl-3-cephem-4-carboxylate, reference compound] | 3.12 | 0.78 | 0.1 | 3.12 | 1.56 |  | 3.12 | 1.56 | < 0.006 | 1.56 | 12.5 | 1.56 | 1.56 | 50 | > 100 | 6.25 | 12.5 | 3.12 | 12.5 |  | MIC (E. cloacae 963; [9]): 6.2 µg/mL; MIC (A. calcoaceticus No. 4; [3]): > 100 µg/mL |
| CCON=C(C(=O)N[C@@H]1C(=O)N2C(C(=O)[O-])=C(CSc3nc(-c4ccc(OC(C)=O)c(OC(C)=O)c4)cs3)CS[C@H]12)c1csc(N)n1.[Na+] [Ex. 49, sodium 3-[4-(3,4-diacetoxyphenyl)-thiazol-2-yl]thiomethyl-7β-[2-(2-aminothiazol-4-yl)-2-ethoxyiminoacetamido]-3-cephem-4-carboxylate] | 6.25 | 0.05 | < 0.006 | 0.39 | 0.1 | 0.1 | 0.05 | 1.56 |  | 0.1 | 0.05 | 0.025 | 0.05 |  |  |  | 0.78 |  | 0.78 | 0.39 | MIC (S. marcescens No. 16-2; [8]): 3.12 µg/mL; MIC (S. aureus 209P NIHJ-JC1; [11]): 1.56 µg/mL; MIC (P. vulgaris HX-19): 0.0125 µg/mL; MIC (Ps. aeruginosa AK 109; [13]): 0.78 µg/mL; MIC (Ps. aeruginosa AKR17; AKR17, 16 h): 100 µg/mL |
| CC(C)O/N=C(\C(=O)N[C@@H]1C(=O)N2C(C(=O)O)=C(CSc3nnc(-c4ccc(O)c(O)c4)o3)CS[C@H]12)c1csc(N)n1 [Ex. 7, sodium 78-[2-(2-aminothiazol-4-yl)-2-isopropoxyiminoacetamido]-3-[5-(3,4-dihydroxyphenyl)-1,3,4-oxadiazol-2-yl]thiomethyl-3-cephem-4-carboxylate] | 0.1 | 0.0125 | < 0.006 | 0.1 | 0.0125 |  | 0.025 |  | < 0.006 |  |  | < 0.006 | 1.56 | 0.2 | 50 | 1.56 | 0.05 |  | 0.39 | 0.1 | MIC (S. aureus 209P NIHJ-JC1; [11]): 1.56 µg/mL; MIC (E. cloacae 963; [9]): 0.0125 µg/mL; MIC (E. coli GN5482; [8]): 0.39 µg/mL; MIC (S. marcescens IAM 1184; [14]): 0.025 µg/mL; MIC (Ps. cepacia 23; [15]): < 0.006 µg/mL |
| CCON=C(C(=O)N[C@@H]1C(=O)N2C(C(=O)[O-])=C(CSc3ncc(-c4ccc(O)c(O)c4)o3)CS[C@H]12)c1csc(N)n1.[Na+] [Ex. 63, sodium 7β-[2-(2-aminothiazol-4-yl)-2-ethoxyiminoacetamido]-3-[5-(3,4-dihydroxyphenyl)-oxazol-2-yl]thiomethyl-3-cephem-4-carboxylate] | 3.12 | 0.025 | < 0.006 | 0.39 | 0.1 | 0.2 | 0.1 | 1.56 |  | 0.1 | 0.1 | 0.0125 | 0.1 |  |  | 6.25 | 0.39 | 3.12 | 1.56 | 0.78 | MIC (P. vulgaris HX-19): 0.0125 µg/mL; MIC (Ps. aeruginosa AK 109; [13]): 1.56 µg/mL; MIC (Ps. aeruginosa AKR17; AKR17, 16 h): 100 µg/mL |
| Nc1nc(/C(=N/OCc2ccccc2)C(=O)N[C@@H]2C(=O)N3C(C(=O)O)=C(CSc4nnc(-c5ccc(O)c(O)c5)s4)CS[C@H]23)cs1 [Ex. 32, 7β-[2-(2-aminothiazol-4-yl)-2-benzyloxviminoacetamido]-3-[5-(3,4-dihydroxvphenvl)-1,3,4-thiadiazol-2-yl]thiomethyl-3-cephem-4-carboxylic acid trifluoroacetate] | 0.39 | 0.2 | < 0.006 | 0.39 | 0.1 |  | 0.0125 | 0.78 | 0.0125 |  |  | < 0.006 | 1.56 |  | > 100 |  | 0.2 | 0.39 | 0.78 | 0.39 | MIC (S. marcescens No. 16-2; [8]): 12.5 µg/mL; MIC (E. cloacae 963; [9]): 0.1 µg/mL; MIC (S. marcescens IAM 1184; [14]): 0.025 µg/mL; MIC (Ps. cepacia 23; [15]): < 0.006 µg/mL; MIC (Ps. aeruginosa AK 109; [8]): 0.39 µg/mL |
